Data reported in patent US20070088064A1, “PHARMACEUTICAL COMPOSITION CONTAINING BICYCLIC TYPE COMPOUNDS” (SmithKline Beecham plc, priority 1992, published 2007).

Tested on: electrically-induced seizures
Assay: Maximal electroshock seizure (MES) threshold test
Assay type: in vivo
Details: 10 mg/kg p.o., mice
Protocol: The maximal electroshock seizure (MES) threshold test in rodents is particularly sensitive for detecting potential anticonvulsant properties^1. In this model, anticonvulsant agents elevate the threshold to electrically—induced seizures whilst proconvulsants lower the seizure threshold.
Mice (male, Charles River, U.K. CD-1 strain, 25-30 g) are randomly assigned to groups of 10-20 and dosed orally or intraperitoneally at a dose volume of 10 ml/kg with various doses of compound (0.3-300 mg/kg) or vehicle. Mice are then subjected at 30 or 60 min post dose to a single electroshock (0.1 sec, 50 Hz, sine wave form) administered via corneal electrodes. The mean current and standard error required to induce a tonic seizure in 50% (CC50) of the mice in a particular treatment group is determined by the ‘up and down’ method of Dixon and Mood (1948)^2. Stastical comparisons between vehicle—and drug—treated groups are made using the method of Litchfield and Wilcoxon (1949)^3.
In control animals the CC50 is usually 14-18 mA. […] If a tonic convulsion does occur, then the current is decreased, and so on until all the animals in the group have been tested.
The percentage increase or decrease in CC50 for each group compared to the control is calculated. […]

| Structure (SMILES) | enhanced seizure threshold (percentage increase in CC50 compared to control) |
| --- | --- |
| CC(=O)c1ccc2c(c1)[C@H](NC(=O)c1ccc(F)cc1)[C@H](O)C(C)(C)O2 (relative stereo) [Example 3, cis-6-Acetyl-4S-(4-fluorobenzoylamino)-3,4-dihydro-2,2-dimethyl-2H-1-benzopyran-3S-ol] | 84% |
| CCc1ccc2c(c1)[C@H](NC(=O)c1ccc(F)cc1)[C@H](O)C(C)(C)O2 (relative stereo) [Example 7, cis-6-Ethyl-4S-(4-fluorobenzoylamino)-3,4-dihydro-2,2-dimethyl-2H-1-benzopyran-3S-ol] | 105% |
